This passage reports IC50 results from US20040038855A1 (priority 1999, published 2004).

This test addresses human MCH1 receptor (Homo sapiens, UniProt Q99705). As to the kind of experiment: Saturation and competition binding of [3H]Compound 10, membranes of Cos-7 cells transfected with MCH1. Also noted: expressed in transfected cells; host or cells: COS-7. To be noted: 0.4 nM [3H]Compound 10; read-out: IC50, displacement of specific [3H]Compound 10 binding. As for the experimental part: Saturation equilibrium binding of [3H]Compound 10 to the human MCH1 receptor. Membrane preparations from Cos-7 cells transfected with MCH1 were incubated with varying concentrations of [3H]Compound 10 (SA: 56 Ci/mmol) at room temperature for 90 min, in a volume of 0.250 ml. The reaction was terminated by filtration in GF/C filters, and the radioactivity determined by scintillation counting. Non-specific binding was defined as the amount of radioactivity retained in the filter after incubating the reaction mixture in the presence of unlabeled Compound 10 ([…]).
Competition binding of [3H]Compound 10 to the human MCH1 receptor. […] The reaction was terminated by filtration in GF/C filters and the radioactivity bound to the membrane was determined by scintillation counting.
[3H]Compound 10 was tested for its ability to bind to membrane preparations of cells expressing the human MCH1 receptor.

The term IC50 denotes the concentration at which inhibition is half-maximal.

Sequence of human MCH1 receptor (Q99705 whole entry): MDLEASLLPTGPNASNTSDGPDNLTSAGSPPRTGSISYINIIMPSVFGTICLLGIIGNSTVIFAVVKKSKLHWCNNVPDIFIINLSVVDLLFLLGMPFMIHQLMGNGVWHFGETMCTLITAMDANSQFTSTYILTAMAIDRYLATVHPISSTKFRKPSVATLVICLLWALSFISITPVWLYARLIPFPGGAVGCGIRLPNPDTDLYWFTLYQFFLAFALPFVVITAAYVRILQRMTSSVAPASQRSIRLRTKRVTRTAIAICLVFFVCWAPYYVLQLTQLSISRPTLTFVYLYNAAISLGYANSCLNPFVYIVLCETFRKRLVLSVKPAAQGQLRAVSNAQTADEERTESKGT

Consider `COCC1=C(C(=O)OC)[C@H](c2ccc(F)c(F)c2)N(C(=O)NCCCN2CCC(c3cccc(NC(C)=O)c3)CC2)C(=O)N1` [Example 10, (+)-1,2,3,6-TETRAHYDRO-1-{N-[4-(3,-ACETAMIDO)-PHENYLPIPERIDIN-1-YL]PROPYL}CARBOXAMIDO-4-METHOXYMETHYL-6-(3,4-DIFLUORO-PHENYL)-2-OXOPYRIMIDINE-5-CARBOXYLIC ACID METHYL ESTER], for which the IC50 was determined as 0.33 nM.
